The results in this text go back to ChEMBL document CHEMBL1134726, “SAR studies of novel 5-substituted 2-arylindoles as nonpeptidyl GnRH receptor antagonists” (Bioorg Med Chem Lett, 2001).

Each structure is given as a SMILES string.

The target in this assay is T1, Gonadotropin-releasing hormone receptor (Rattus norvegicus, UniProt P30969).
T1 sequence (P30969 whole entry): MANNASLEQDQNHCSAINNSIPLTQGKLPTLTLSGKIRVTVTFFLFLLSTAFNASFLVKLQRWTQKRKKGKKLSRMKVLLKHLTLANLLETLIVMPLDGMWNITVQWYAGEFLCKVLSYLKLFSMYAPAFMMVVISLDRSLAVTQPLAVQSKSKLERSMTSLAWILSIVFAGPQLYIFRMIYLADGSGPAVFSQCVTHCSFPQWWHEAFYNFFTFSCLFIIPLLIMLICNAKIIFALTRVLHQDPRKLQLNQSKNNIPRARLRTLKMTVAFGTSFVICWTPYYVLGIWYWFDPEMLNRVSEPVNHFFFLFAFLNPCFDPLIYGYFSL
As to the kind of experiment: Binding affinity to rat Gonadotropin-releasing hormone receptor.
As a reminder, the IC50 is the concentration that gives 50% inhibition. `Cc1cc(C)cc(-c2[nH]c3ccc(OC(=O)N4CCN(C)CC4)cc3c2CCNCCCCc2ccc(O)cc2)c1` had an IC50 of 25 nM.

Turning to `Cc1cc(C)cc(-c2[nH]c3ccc(OC(=O)N4CCN(S(C)(=O)=O)CC4)cc3c2CCNCCCCc2ccc(O)cc2)c1`, the IC50 was determined as 6 nM.

`CCCC(=O)N1CCN(C(=O)Oc2ccc3[nH]c(-c4cc(C)cc(C)c4)c(CCNCCCCc4ccc(O)cc4)c3c2)CC1`: the IC50 amounted to 30 nM.

The compound `CCOC(=O)N1CCN(C(=O)Oc2ccc3[nH]c(-c4cc(C)cc(C)c4)c(CCNCCCCc4ccc(O)cc4)c3c2)CC1` displayed an IC50 of 32 nM.

`CC(=O)N1CCN(C(=O)Oc2ccc3[nH]c(-c4cc(C)cc(C)c4)c(CCNCCCCc4ccc(O)cc4)c3c2)CC1`: the IC50 is 30 nM.

As for `Cc1cc(C)cc(-c2[nH]c3ccc(OCc4ccccc4)cc3c2CCNCCCCc2ccc(O)cc2)c1`, the IC50 is 100 nM.

The compound `Cc1cc(C)cc(-c2[nH]c3ccc(OC(=O)N4CCN(S(=O)(=O)C(C)C)CC4)cc3c2CCNCCCCc2ccc(O)cc2)c1` displayed an IC50 of 7 nM.

The compound `Cc1cc(C)cc(-c2[nH]c3ccc(OC(=O)N4CCCCC4)cc3c2CCNCCCCc2ccc(O)cc2)c1` came in with an IC50 of 32 nM.

`CNC(=O)Oc1ccc2[nH]c(-c3cc(C)cc(C)c3)c(CCNCCCCc3ccc(O)cc3)c2c1` gave an IC50 of 30 nM.

`CCS(=O)(=O)N1CCN(C(=O)Oc2ccc3[nH]c(-c4cc(C)cc(C)c4)c(CCNCCCCc4ccc(O)cc4)c3c2)CC1`: the IC50 is 4 nM.

On to `CCCS(=O)(=O)N1CCN(C(=O)Oc2ccc3[nH]c(-c4cc(C)cc(C)c4)c(CCNCCCCc4ccc(O)cc4)c3c2)CC1`, for which the half-inhibitory concentration (IC50) worked out at 12 nM.

Take `Cc1cc(C)cc(-c2[nH]c3ccc(OC(=O)N4CCOCC4)cc3c2CCNCCCCc2ccc(O)cc2)c1`: the IC50 came to 20 nM.

On to `COc1ccc2[nH]c(-c3cc(C)cc(C)c3)c(CCNCCCCc3ccc(O)cc3)c2c1`, for which the half-inhibitory concentration (IC50) worked out at 40 nM.

For the compound `Cc1cc(C)cc(-c2[nH]c3ccc(OC(=O)N4CCN(CC(N)=O)CC4)cc3c2CCNCCCCc2ccc(O)cc2)c1`, the IC50 came out at 27 nM.

For the compound `CCNC(=O)Oc1ccc2[nH]c(-c3cc(C)cc(C)c3)c(CCNCCCCc3ccc(O)cc3)c2c1`, the IC50 stood at 16 nM.

As for `Cc1cc(C)cc(-c2[nH]c3ccc(OC(=O)N4CCNCC4)cc3c2CCNCCCCc2ccc(O)cc2)c1`, the IC50 stood at 100 nM.

`Cc1cc(C)cc(-c2[nH]c3ccc(OC(=O)N(C)C)cc3c2CCNCCCCc2ccc(O)cc2)c1` returned an IC50 of 30 nM.

In turn, `CCCNC(=O)Oc1ccc2[nH]c(-c3cc(C)cc(C)c3)c(CCNCCCCc3ccc(O)cc3)c2c1` registered an IC50 of 30 nM.

For the compound `CCC(=O)N1CCN(C(=O)Oc2ccc3[nH]c(-c4cc(C)cc(C)c4)c(CCNCCCCc4ccc(O)cc4)c3c2)CC1`, the IC50 was 15 nM.
